Patent US8461183B2, “PPAR agonist compounds, preparation and uses” (Genfit, priority 2008, dated 2013)
pEC50: −log10 of the molar value.

How the values were obtained:
Assay type in all cases: cell-based
[1] = target: T1, hPPARα (Homo sapiens, UniProt Q07869); assay: Gal4-hPPARα chimera transactivation (luciferase) in COS-7 cells; conditions: for pEC50: luciferase, read-out: PPARα EC50; for Emax: read-out: PPARα TOP % (maximum activation)
T1 construct: corresponding to the DEF domains (structural elements of the promoter of the PPARs: D=hinge, EF=ligand fixation domain and AF2 fixation site); expressed in transfected cells; host or cells: COS-7 (monkey kidney fibroblasts)
T1 sequence (Q07869 239-466 limits assumed): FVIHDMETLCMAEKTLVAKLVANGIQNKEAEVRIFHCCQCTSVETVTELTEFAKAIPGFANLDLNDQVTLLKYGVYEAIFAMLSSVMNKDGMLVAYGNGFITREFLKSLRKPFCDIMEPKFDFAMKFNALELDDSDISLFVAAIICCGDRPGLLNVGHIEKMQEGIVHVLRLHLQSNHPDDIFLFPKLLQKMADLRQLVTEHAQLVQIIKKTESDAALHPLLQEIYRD
Method: (§1) Activation of PPARs is evaluated in vitro on a line of monkey kidney fibroblasts (COS-7) by measuring the transcriptional activity of chimeras consisting of the DNA binding domain of Gal4 transcription factor of yeast and of the ligand binding domain of the various PPARs of human origin (hPPAR).
(§2) The COS-7 cells are from ATCC and are cultivated in DMEM medium supplemented with 10% (vol/vol) of fetal calf serum, 1% of penicillin/streptomycin (Biochrom, AG), 1% of amino acids (Gibco) and 1% of sodium pyruvate (Gibco). The cells are incubated at 37° C. in a humid atmosphere containing 5% CO2.
(§3) The plasmids Gal4(RE)_TkpGL3, pGal4-hPPARα, pGal4-hPPARγ, pGal4-hPPARδ and pGal4-φ are described in the literature (Raspe E et al., 1999). The constructs pGal4-hPPARα, pGal4-hPPARγ and pGal4-hPPARδ were obtained by cloning, into the pGal4-φ vector, DNA fragments amplified by PCR corresponding to the DEF domains (structural elements of the promoter of the PPARs: D=hinge, EF=ligand fixation domain and AF2 fixation site) of the human nuclear receptors PPAα, PPARγ and PPARδ.
(§4) The adherent COS-7 cells are transfected with 40 μg of DNA per 225 cm^2 flask, with a pGal4-hPPAR/Gal4(RE)_TkpGL3 ratio of 1/10, in the presence of 10% of fetal calf serum. The cells are then detached and seeded in the absence of serum in 384-well plates (2×10^4 cells/well) then incubated for 4 hours at 37° C. The compounds are then diluted in a 96-well plate and then transferred to the 384-well plate. Activation with the test compounds is effected for a further 24 hours at 37° C. in the presence of 1% of synthetic serum Ultroser™ (Biosepra). These last 2 stages are automated by means of a Genesis Freedom 200™ station (Tecan). At the end of the experiment, the cells are lysed and the luciferase activity is determined using the Steady-Lite™ HTS (Perkin Elmer) according to the supplier's recommendations.
The test data are summarized in Table 8-1 below, which presents, for each compound, the values of maximum activation (TOP %) and the EC50 values measured for each isoform of PPAR. The values of maximum activation are expressed in percentages relative to the maximum activations obtained with reference agonists: fenofibric acid for PPARα, rosiglitazone for PPARγ and 2-methyl-4-((4-methyl-2-(4-trifluoromethylphenyl)-1,3-thiazol-5-yl)-methylsulfanyl)phenoxyacetic acid (also called GW501516) for PPARδ.

[2] = target: T2, hPPARγ (Homo sapiens, UniProt P37231); assay: Gal4-hPPARγ chimera transactivation (luciferase) in COS-7 cells; conditions: 24 hours; for pEC50: luciferase, read-out: PPARγ EC50; for Emax: relative to maximum activation obtained with rosiglitazone, read-out: PPARγ TOP % (maximum activation)
T2 construct: corresponding to the DEF domains (structural elements of the promoter of the PPARs: D=hinge, EF=ligand fixation domain and AF2 fixation site); expressed in transfected cells; host or cells: COS-7 (monkey kidney fibroblasts)
T2 sequence (P37231 238-503 limits assumed): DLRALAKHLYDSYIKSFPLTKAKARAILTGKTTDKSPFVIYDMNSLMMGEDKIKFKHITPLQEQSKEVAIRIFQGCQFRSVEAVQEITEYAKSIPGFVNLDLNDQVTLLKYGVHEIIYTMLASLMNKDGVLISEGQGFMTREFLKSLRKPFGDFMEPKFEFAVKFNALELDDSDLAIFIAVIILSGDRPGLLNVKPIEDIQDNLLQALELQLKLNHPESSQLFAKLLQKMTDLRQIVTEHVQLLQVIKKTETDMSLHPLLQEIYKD
Method: as §1, §2, §3, §4
(§5) The test data are summarized in Table 8-1 below, which presents, for each compound, the values of maximum activation (TOP %) and the EC50 values measured for each isoform of PPAR.

[3] = target: T3, hPPARδ (Homo sapiens, UniProt Q03181); assay: Gal4-hPPARδ chimera transactivation (luciferase) in COS-7 cells; conditions: COS-7 cells, Gal4-hPPARδ, 24 hours; for pEC50: luciferase, read-out: PPARδ EC50; for Emax: relative to maximum activation obtained with GW501516, read-out: PPARδ TOP % (maximum activation)
T3 construct: corresponding to the DEF domains (structural elements of the promoter of the PPARs: D=hinge, EF=ligand fixation domain and AF2 fixation site); expressed in transfected cells; host or cells: COS-7 (monkey kidney fibroblasts)
T3 sequence (Q03181 211-439 limits assumed): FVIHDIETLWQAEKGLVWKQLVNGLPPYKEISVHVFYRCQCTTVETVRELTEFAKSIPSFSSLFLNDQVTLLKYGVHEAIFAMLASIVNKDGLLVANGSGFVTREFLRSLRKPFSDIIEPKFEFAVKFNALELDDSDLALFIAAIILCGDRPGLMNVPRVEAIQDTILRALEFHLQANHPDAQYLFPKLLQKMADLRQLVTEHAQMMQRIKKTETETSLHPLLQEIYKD
Method: as §1, §2, §3, §4, §5

[4] = COS-7 cells, Gal4-hPPARα, 24 hours
[5] = relative to maximum activation obtained with fenofibric acid, COS-7 cells, Gal4-hPPARα, 24 hours

pEC50 [1, 4]	selectivity among hPPAR isoforms (hPPARα) ([1]; Gal4-hPPAR chimeras, COS-7)	Emax [1, 5]	pEC50 [2]	Emax [2]	pEC50 [3]	Emax [3]	PPARα TOP % (maximum activation) [1, 5]	Compound
7.66	high selectivity for hPPARα	86.2%	5.61	54.5%	5.52	85.7%		COc1nc(-c2ccccc2)ccc1CNc1ccc(SC(C)(C)C(=O)O)cc1 [Cpd 11, 2-(4-(((2-methoxy-6-phenylpyridin-3-yl)methyl)amino)phenylthio)-2-methyl-propanoic acid]
4.84		34.2%	4.52	43%	5.28	87.7%		O=C(O)COc1ccc(OCc2ccc(-c3ccccc3)nc2N2CCCCC2)cc1 [Cpd 20, 2-(4-((6-phenyl-2-(piperidin-1-yl)pyridin-3-yl)methoxy)phenoxy)ethanoic acid]
6.21		60%	5.71	69.4%	7.55	107%		COc1ncc(-c2ccc(C(F)(F)F)cc2)cc1CNc1ccc(CCC(=O)O)cc1 [Cpd 46, 3-(4-(((2-methoxy-5-(4-(trifluoromethyl)phenyl)pyridin-3-yl)methyl)amino)phenyl)propanoic acid]
5.72		58.6%	5.97	85%	5.72	79.2%		COc1ncc(-c2cccc(C(F)(F)F)c2)cc1CNc1ccc(CCC(=O)O)cc1 [Cpd 47, 3-(4-(((2-methoxy-5-(3-(trifluoromethyl)phenyl)pyridin-3-yl)methyl)amino)-phenyl)propanoic acid]
6.29		78%	5.29	70%	5.47	85.2%		COc1nc(-c2ccccc2)ccc1CNc1ccc(SCC(=O)O)cc1 [Cpd 16, 2-(4-(((2-methoxy-6-phenylpyridin-3-yl)methyl)amino)phenylthio)ethanoic acid]
4.58		35.9%	5.02	58.2%	4.78	68.1%		COc1nc(OC)c(-c2ccccc2)cc1CNc1ccc(CCC(=O)O)cc1 [Cpd 48, 3-(4-(((2,6-dimethoxy-5-phenylpyridin-3-yl)methyl)amino)phenyl)propanoic acid]
4.48		58.4%	4.61	53.7%	4.79	103%		COc1nc(-c2ccccc2)ccc1CNc1cccc(OCC(=O)O)c1 [Cpd 14, 2-(3-(((2-methoxy-6-phenylpyridin-3-yl)methyl)amino)phenoxy)ethanoic acid]
6.78		66.7%	6.02	87.2%	7.10	107%		COc1nc(-c2cccc(C(F)(F)F)c2)ccc1CNc1ccc(CCC(=O)O)cc1 [Cpd 40, 3-(4-(((2-methoxy-6-(3-(trifluoromethyl)phenyl)pyridin-3-yl)methyl)amino)-phenyl)propanoic acid]
5.19		43.2%	5.62	79.4%	5.47	97.3%		COc1nc(-c2ccccc2)ccc1CNc1ccc(C(C)CC(=O)O)cc1 (centres unmarked) [Cpd 45, 3-(4-(((2-methoxy-6-phenylpyridin-3-yl)methyl)amino)phenyl)butanoic acid]

The next lines start with the compound.

Compound	pEC50 [1, 4]	selectivity among hPPAR isoforms (hPPARα) ([1]; Gal4-hPPAR chimeras, COS-7)	Emax [1, 5]	pEC50 [2]	Emax [2]	pEC50 [3]	Emax [3]	PPARα TOP % (maximum activation) [1, 5]
COc1nc(-c2ccccc2)ccc1CSc1ccc(CCC(=O)O)cc1 [Cpd 37, 3-(4-((2-methoxy-6-phenylpyridin-3-yl)methylthio)phenyl)propanoic acid]	5.00		65.5%	5.04	98.5%	4.90	94.7%	
COc1nc(-c2ccccc2)c(-c2ccccc2)cc1CNc1ccc(SCC(=O)O)cc1 [Cpd 28, 2-(4-(((2-methoxy-5,6-diphenylpyridin-3-yl)methyl)amino)phenylthio)ethanoic acid]	5.76		55.4%	4.95	45%	4.60	49.1%	
CC#CC(CC(=O)O)c1ccc(OCc2cc(-c3ccccc3)cnc2OC)cc1 (centres unmarked) [Cpd 52, 3-(4-((2-methoxy-5-phenylpyridin-3-yl)methoxy)phenyl)hex-4-ynoic acid]	4.86		34.3%	5.56	54.8%	4.70	16.1%	
COc1nc(-c2ccc(C(F)(F)F)cc2)ccc1COc1ccc(OC(C)(C)C(=O)O)cc1 [Cpd 21, 2-(4-((2-methoxy-6-(4-(trifluoromethyl)phenyl)pyridin-3-yl)methoxy)-phenoxy)-2-methylpropanoic acid]			70.2%	5.84	51.5%	6.56	100%	
COc1nc(-c2ccccc2)ccc1COc1ccc(OC(C)C(=O)O)cc1 (centres unmarked) [Cpd 3, 2-(4-((2-methoxy-6-phenylpyridin-3-yl)methoxy)phenoxy)propanoic acid]	6.36		68.7%	5.49	43.6%	5.92	114%	
CCOc1nc(-c2ccccc2)ccc1CNc1ccc(CCC(=O)O)cc1 [Cpd 51, 3-(4-(((2-ethoxy-6-phenylpyridin-3-yl)methyl)amino)phenyl)propanoic acid]	5.89		50.5%	5.65	70.9%	5.71	93.1%	
COc1nc(-c2ccccc2)ccc1CNc1cccc(OC(C)(C)C(=O)O)c1 [Cpd 13, 2-(3-(((2-methoxy-6-phenylpyridin-3-yl)methyl)amino)phenoxy)-2-methyl-propanoic acid]	5.84		61.9%	5.16	24.1%	5.49	96.1%	
COc1nc(-c2ccccc2)ccc1CNc1cc(C)c(OCC(=O)O)c(C)c1 [Cpd 35, 2-(4-(((2-methoxy-6-phenylpyridin-3-yl)methyl)amino)-2,6-dimethyl-phenoxy)ethanoic acid]	6.19		26.1%	5.21	38.8%	5.81	13.2%	
2-(4-(((2-methoxy-6-furylpyridin-3-yl)methyl)amino)phenylthio)ethanoic acid [Cpd 30]	4.92							38.70%
